Tested on: 885724-159-R-J1-PDC KRAS PDC multicell spheroid viability
Experiment: Anticancer human tumor 885724-159-R-J1-PDC patient-derived pancreatic adenocarcinoma cell line growth inhibition [KRAS2]
Details: for IC50: curve of first compound; for viability, T/C: stronger effect = lower value
Method in brief: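 KRAS-mutant tumor cells were grown as spheroids with HUVEC endothelial cells and human MSCs as stroma. Targeted agents were tested alone and with KRAS pathway inhibitors. Doses started at or near clinical Cmax, or 10 microM, descending half-log.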

[1] = second compound 0.1 µM, first compound 0.000316 µM
[2] = second compound 0.1 µM, first compound 0.001 µM
[3] = second compound 0.1 µM, first compound 0.00316 µM
[4] = second compound 0.1 µM, first compound 0.01 µM
[5] = second compound 0.1 µM, first compound 0.0316 µM
[6] = second compound 0.316 µM, first compound 0.000316 µM
[7] = second compound 0.316 µM, first compound 0.001 µM
[8] = second compound 0.316 µM, first compound 0.00316 µM
[9] = second compound 0.316 µM, first compound 0.01 µM
[10] = second compound 0.316 µM, first compound 0.0316 µM
[11] = second compound 1 µM, first compound 0.000316 µM
[12] = second compound 1 µM, first compound 0.001 µM
[13] = second compound 1 µM, first compound 0.00316 µM
[14] = second compound 1 µM, first compound 0.01 µM
[15] = second compound 1 µM, first compound 0.0316 µM
[16] = second compound 3.16 µM, first compound 0.000316 µM
[17] = second compound 3.16 µM, first compound 0.001 µM
[18] = second compound 3.16 µM, first compound 0.00316 µM
[19] = second compound 3.16 µM, first compound 0.01 µM
[20] = second compound 3.16 µM, first compound 0.0316 µM
[21] = second compound 10 µM, first compound 0.000316 µM
[22] = second compound 10 µM, first compound 0.001 µM
[23] = second compound 10 µM, first compound 0.00316 µM
[24] = second compound 10 µM, first compound 0.01 µM
[25] = second compound 10 µM, first compound 0.0316 µM
[26] = second compound 0.1 µM, first compound 0.1 µM
[27] = second compound 0.316 µM, first compound 0.1 µM
[28] = second compound 1 µM, first compound 0.1 µM
[29] = second compound 3.16 µM, first compound 0.1 µM
[30] = second compound 10 µM, first compound 0.1 µM
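Note: spheroids exposed to agents for 7 days before readout.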

Molecule CC(=O)Nc1cccc(-n2c(=O)n(C3CC3)c(=O)c3c(Nc4ccc(I)cc4F)n(C)c(=O)c(C)c32)c1 + COc1cc2nc(C)nc(NC(C)c3cc(N)cc(C(F)(F)F)c3)c2cc1OC1CCOC1 has an IC50 (second compound 0.1 µM) of 0.000985 µM, an IC50 (second compound 0.316 µM) of 0.000909 µM and an IC50 (second compound 1 µM) of 0.000845 µM. For the same molecule, the IC50 (second compound 3.16 µM) was 0.000706 µM, the IC50 (second compound 10 µM) was < 0.0001 µM and the viability, T/C (second compound 0.1 µM, first compound 0.0001 µM) was 91%. It also gave a viability, T/C [1] of 73%, a viability, T/C [2] of 48.1% and a viability, T/C [3] of 32.7%. The viability, T/C [4] was 26.2%, the viability, T/C [5] was 17% and the viability, T/C (second compound 0.316 µM, first compound 0.0001 µM) was 87.2%. The viability, T/C [6] was 68.9%, the viability, T/C [7] was 46.4% and the viability, T/C [8] was 34.3%. For the same molecule, the viability, T/C [9] was 24.9%, the viability, T/C [10] was 17.3% and the viability, T/C (second compound 1 µM, first compound 0.0001 µM) was 89.8%. It also gave a viability, T/C [11] of 68.4%, a viability, T/C [12] of 46.1% and a viability, T/C [13] of 31.6%. For the same molecule, the viability, T/C [14] was 24.6%, the viability, T/C [15] was 17.1% and the viability, T/C (second compound 3.16 µM, first compound 0.0001 µM) was 74.9%. For the same molecule, the viability, T/C [16] was 62.8%, the viability, T/C [17] was 44.4% and the viability, T/C [18] was 27.6%. The viability, T/C [19] was 19.1%, the viability, T/C [20] was 10.7% and the viability, T/C (second compound 10 µM, first compound 0.0001 µM) was 34.8%. The viability, T/C [21] was 18.5%, the viability, T/C [22] was 3.24% and the viability, T/C [23] was 0.51%. For the same molecule, the viability, T/C [24] was 0.67% and the viability, T/C [25] was 0.32%.

Molecule CC(C)n1nc(-c2ccc3oc(N)nc3c2)c2c(N)ncnc21 + COc1cc2nc(C)nc(NC(C)c3cc(N)cc(C(F)(F)F)c3)c2cc1OC1CCOC1 has an IC50 (second compound 0.1 µM) of 0.017 µM, an IC50 (second compound 0.316 µM) of 0.0203 µM and an IC50 (second compound 1 µM) of 0.0181 µM. For the same molecule, the IC50 (second compound 3.16 µM) was 0.00762 µM, the IC50 (second compound 10 µM) was < 0.000316 µM and the viability, T/C [1] was 91.2%. The viability, T/C [2] was 76.2%, the viability, T/C [3] was 62.7% and the viability, T/C [4] was 53.2%. It also gave a viability, T/C [5] of 47%, a viability, T/C [26] of 40.3% and a viability, T/C [6] of 90.3%. It also gave a viability, T/C [7] of 75.8%, a viability, T/C [8] of 66.4% and a viability, T/C [9] of 57.2%. The viability, T/C [10] was 45%, the viability, T/C [27] was 39.2% and the viability, T/C [11] was 93%. It also gave a viability, T/C [12] of 78.8%, a viability, T/C [13] of 59.7% and a viability, T/C [14] of 56%. It also gave a viability, T/C [15] of 46.9%, a viability, T/C [28] of 42% and a viability, T/C [16] of 76.4%. It also gave a viability, T/C [17] of 69.8%, a viability, T/C [18] of 54.8% and a viability, T/C [19] of 49.1%. For the same molecule, the viability, T/C [20] was 47%, the viability, T/C [29] was 42.6% and the viability, T/C [21] was 36.4%. For the same molecule, the viability, T/C [22] was 24.9%, the viability, T/C [23] was 47.5% and the viability, T/C [24] was 39.8%. It also gave a viability, T/C [25] of 31.4% and a viability, T/C [30] of 20.9%.

Work on CC1(C)CCC(CN2CCN(c3ccc(C(=O)NS(=O)(=O)c4ccc(NCC5CCOCC5)c([N+](=O)[O-])c4)c(Oc4cnc5[nH]ccc5c4)c3)CC2)=C(c2ccc(Cl)cc2)C1 + COc1cc2nc(C)nc(NC(C)c3cc(N)cc(C(F)(F)F)c3)c2cc1OC1CCOC1 yielded an IC50 (second compound 0.1 µM) of 7.29 µM, an IC50 (second compound 0.316 µM) of 6.93 µM and an IC50 (second compound 1 µM) of 5.01 µM. The IC50 (second compound 3.16 µM) was 4.31 µM, the IC50 (second compound 10 µM) was < 0.0316 µM and the viability, T/C [5] was 93.7%. For the same molecule, the viability, T/C [26] was 91.3%, the viability, T/C (second compound 0.1 µM, first compound 0.316 µM) was 91.8% and the viability, T/C (second compound 0.1 µM, first compound 1 µM) was 88.3%. The viability, T/C (second compound 0.1 µM, first compound 3.16 µM) was 82.2%, the viability, T/C (second compound 0.1 µM, first compound 10 µM) was 37.6% and the viability, T/C [10] was 96.9%. It also gave a viability, T/C [27] of 88.4%, a viability, T/C (second compound 0.316 µM, first compound 0.316 µM) of 86% and a viability, T/C (second compound 0.316 µM, first compound 1 µM) of 92.7%. The viability, T/C (second compound 0.316 µM, first compound 3.16 µM) was 79.5%, the viability, T/C (second compound 0.316 µM, first compound 10 µM) was 35.7% and the viability, T/C [15] was 91.2%. The viability, T/C [28] was 88.3%, the viability, T/C (second compound 1 µM, first compound 0.316 µM) was 81.9% and the viability, T/C (second compound 1 µM, first compound 1 µM) was 83.1%. The viability, T/C (second compound 1 µM, first compound 3.16 µM) was 64.1%, the viability, T/C (second compound 1 µM, first compound 10 µM) was 28% and the viability, T/C [20] was 84.4%. The viability, T/C [29] was 82.8%, the viability, T/C (second compound 3.16 µM, first compound 0.316 µM) was 84.4% and the viability, T/C (second compound 3.16 µM, first compound 1 µM) was 71.7%. The viability, T/C (second compound 3.16 µM, first compound 3.16 µM) was 59.7%, the viability, T/C (second compound 3.16 µM, first compound 10 µM) was 26.4% and the viability, T/C [25] was 31.2%. It also gave a viability, T/C [30] of 35.5%, a viability, T/C (second compound 10 µM, first compound 0.316 µM) of 23.4% and a viability, T/C (second compound 10 µM, first compound 1 µM) of 27.7%. It also gave a viability, T/C (second compound 10 µM, first compound 3.16 µM) of 26.2% and a viability, T/C (second compound 10 µM, first compound 10 µM) of 8.47%.
